# Data: article PMC9233935 (Journal of medicinal chemistry, 2022)
# Key:
# [1] = test system: gyrA hypomorph (gyrA-FDAS-TetON-1); format: cell-based; conditions: fold-hypersensitivity
# [2] = target: Mtb gyrase (Mycobacterium tuberculosis, UniProt P9WG45+P9WG47); test: biochemical; format: biochemical
# [3] = test system: S. aureus ATTC 25923
# [4] = test system: S. aureus ATTC 25923; test: microbe, parasite or virus in culture; conditions: Staphylococcus aureus, ATTC25923, read-out: Sau MIC
# [5] = test system: M. tuberculosis H37Rv; test: microbe, parasite or virus in culture; format: cell-based, Mycobacterium tuberculosis
# Mtb gyrase, sequence (P9WG45 whole entry, looked up): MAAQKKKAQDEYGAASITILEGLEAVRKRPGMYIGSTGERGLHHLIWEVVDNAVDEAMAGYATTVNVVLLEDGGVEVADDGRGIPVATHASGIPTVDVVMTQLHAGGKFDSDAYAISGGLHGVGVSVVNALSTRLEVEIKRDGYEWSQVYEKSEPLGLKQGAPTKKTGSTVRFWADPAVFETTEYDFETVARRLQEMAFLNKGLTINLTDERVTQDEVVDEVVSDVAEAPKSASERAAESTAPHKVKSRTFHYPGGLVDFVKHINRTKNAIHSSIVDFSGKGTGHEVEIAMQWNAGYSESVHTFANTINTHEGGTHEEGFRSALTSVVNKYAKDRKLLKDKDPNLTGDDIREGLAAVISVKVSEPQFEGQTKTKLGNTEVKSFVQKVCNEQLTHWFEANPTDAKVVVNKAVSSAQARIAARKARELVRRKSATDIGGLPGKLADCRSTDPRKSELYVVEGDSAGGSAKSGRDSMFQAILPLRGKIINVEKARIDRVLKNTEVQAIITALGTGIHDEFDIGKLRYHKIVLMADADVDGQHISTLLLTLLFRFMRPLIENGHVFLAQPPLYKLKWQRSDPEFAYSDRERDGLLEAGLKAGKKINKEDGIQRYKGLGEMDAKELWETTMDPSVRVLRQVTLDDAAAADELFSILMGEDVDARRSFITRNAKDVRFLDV
# Mtb gyrase, sequence (P9WG47 whole entry, looked up): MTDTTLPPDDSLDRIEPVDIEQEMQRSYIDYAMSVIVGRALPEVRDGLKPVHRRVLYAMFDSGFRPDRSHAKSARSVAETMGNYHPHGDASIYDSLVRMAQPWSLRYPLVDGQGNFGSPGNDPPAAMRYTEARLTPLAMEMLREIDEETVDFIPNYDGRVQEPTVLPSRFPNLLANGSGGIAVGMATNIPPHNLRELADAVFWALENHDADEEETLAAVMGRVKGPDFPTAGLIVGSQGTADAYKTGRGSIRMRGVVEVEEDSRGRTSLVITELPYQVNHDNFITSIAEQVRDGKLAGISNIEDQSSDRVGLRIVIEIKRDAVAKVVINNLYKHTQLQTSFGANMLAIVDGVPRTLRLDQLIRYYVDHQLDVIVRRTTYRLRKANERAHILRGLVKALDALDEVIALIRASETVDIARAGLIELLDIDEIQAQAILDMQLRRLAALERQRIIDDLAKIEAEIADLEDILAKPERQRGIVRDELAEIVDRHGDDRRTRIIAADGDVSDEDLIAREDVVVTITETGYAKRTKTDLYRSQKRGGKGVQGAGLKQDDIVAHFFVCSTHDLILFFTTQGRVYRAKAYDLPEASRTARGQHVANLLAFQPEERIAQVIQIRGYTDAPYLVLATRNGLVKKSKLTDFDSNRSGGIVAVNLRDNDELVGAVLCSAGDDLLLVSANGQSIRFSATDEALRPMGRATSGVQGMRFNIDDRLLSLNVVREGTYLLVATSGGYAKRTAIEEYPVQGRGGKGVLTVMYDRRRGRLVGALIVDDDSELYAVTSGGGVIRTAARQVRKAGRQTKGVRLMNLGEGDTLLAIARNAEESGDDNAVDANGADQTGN
Compound,Ratio (WT/hypomorph) MIC [1],Ratio (WT/hypomorph) MIC50 [1],MIC [4] [µM],also measured
"C[C@@H]1CN2c3c(cc4c(N5CC[C@H](O)C5)noc4c3F)CC3(C(=O)NC(=O)NC3=O)[C@H]2[C@H](C)O1 [Compound 8, (2R,4S,4aS)-11-fluoro-8-((S)-3-hydroxypyrrolidin-1-yl)-2,4-dimethyl-1,2,4,4a-tetrahydro-2’H,6H-spiro[isoxazolo[4,5-g][1,4]oxazino[4,3-a]quinoline-5,5’-pyrimidine]-2’,4’,6’(1’H,3’H)-trione]",2.5,3.6,,Mtb gyrase IC50 fold higher (less potent) than moxifloxacin [2]: ≤ 2 fold; fold less active against S. aureus than zoliflodacin [3]: > 200 fold
"C[C@@H]1CN2c3c(cc4c(N5C[C@@H](O)[C@H](O)C5)noc4c3F)CC3(C(=O)NC(=O)NC3=O)[C@H]2[C@H](C)O1 [Compound 10, (2R,4S,4aS)-8-((3R,4R)-3,4-dihydroxypyrrolidin-1-yl)-11-fluoro-2,4-dimethyl-1,2,4,4a-tetrahydro-2’H,6H-spiro[isoxazolo[4,5-g][1,4]oxazino[4,3-a]quinoline-5,5’-pyrimidine]-2’,4’,6’(1’H,3’H)-trione]",2.1,2.9,,Mtb gyrase IC50 fold higher (less potent) than moxifloxacin [2]: ≤ 2 fold
"C[C@@H]1CN2c3c(cc4c(N5CCC[C@@H](O)C5)noc4c3F)CC3(C(=O)NC(=O)NC3=O)[C@H]2[C@H](C)O1 [Compound 22, (2R,4S,4aS)-11-fluoro-8-((R)-3-hydroxypiperidin-1-yl)-2,4-dimethyl-1,2,4,4a-tetrahydro-2’H,6H-spiro[isoxazolo[4,5-g][1,4]oxazino[4,3-a]quinoline-5,5’-pyrimidine]-2’,4’,6’(1’H,3’H)-trione]",,,94,
"C[C@@H]1CN2c3c(cc4c(OC[C@H]5CCC(=O)N5)noc4c3F)CC3(C(=O)NC(=O)NC3=O)[C@H]2[C@H](C)O1 [Compound 24, (2R,4S,4aS)-11-fluoro-2,4-dimethyl-8-(((R)-5-oxopyrrolidin-2-yl)methoxy)-1,2,4,4a-tetrahydro-2’H,6H-spiro[isoxazolo[4,5-g][1,4]oxazino[4,3-a]quinoline-5,5’-pyrimidine]-2’,4’,6’(1’H,3’H)-trione]",,,> 125,
"C[C@@H]1CN2c3c(cc4c(OC[C@@H]5COC(=O)N5)noc4c3F)CC3(C(=O)NC(=O)NC3=O)[C@H]2[C@H](C)O1 [Compound 28, (2R,4S,4aS)-11-fluoro-2,4-dimethyl-8-(((R)-2-oxooxazolidin-4-yl)methoxy)-1,2,4,4a-tetrahydro-2’H,6H-spiro[isoxazolo[4,5-g][1,4]oxazino[4,3-a]quinoline-5,5’-pyrimidine]-2’,4’,6’(1’H,3’H)-trione]",,,63,
"C[C@@H]1CN2c3c(cc4c(N5CC[C@H](O)C5)noc4c3F)CC3(C(=O)NC(=O)NC3=O)[C@H]2[C@H](C)N1C#N [Compound 40, (2R,4S,4aS)-11-fluoro-8-((S)-3-hydroxypyrrolidin-1-yl)-2,4-dimethyl-2’,4’,6’-trioxo-1,1’,2,3’,4,4a,4’,6’-octahydro-2’H,3H,6H-spiro[isoxazolo[4,5-g]pyrazino[1,2-a]quinoline-5,5’-pyrimidine]-3-carbonitrile]",2.0,3.1,> 125,IC50 [2]: 19 µM
"(2R,4S,4aS)-11-fluoro-2,4-dimethyl-8-((S)-3-(methylamino)pyrrolidin-1-yl)-1,2,4,4a-tetrahydro-2’H-spiro[isoxazolo[5’,4’:4,5]benzo[1,2-b][1,4]oxazino[4,3-d][1,4]oxazine-5,5’-pyrimidine]-2’,4’,6’(1’H,3’H)-trione [Compound 17]",,,,Mtb MIC [5]: 63 µM; fold higher Mtb MIC compared to 8 [5]: 9 to16 fold; Sau MIC [3]: 125 µM
